Measured values from patent publication US10451536B2, “Method and apparatus for multi-parameter data analysis” (GE HEALTHCARE UK LIMITED, priority 2009, dated 2019).

Test system: CHO-K1 cells
Experiment: High-content screening of nuclear morphology in CHO-K1 cells treated with Mitomycin C, with KS distance analysis
Type: cell-based
Experimental: CHO-K1 cells were seeded into a GE Healthcare 96 well MatriPlate at 6000 cells/well in Ham's F12 media supplemented with 5% EBS and incubated under standard tissue culture conditions for 24 hours. Mitomycin C (MMC) solutions were added in culture media to provide final concentrations in the assay of […] and cells incubated for a further 48 hours. Media was removed from wells and cells washed once with […] phosphate buffered saline (PBS), followed by fixation in ethanol for 30 minutes at room temperature. Nuclei were stained with […] HOECHST™ 33342 (Sigma) at room temperature for 15 minutes and cells washed with […] PBS.
Cells were imaged by a GE Healthcare INCELL ANALYZER 1000™ using v3.5 acquisition software (available from GE Healthcare) with a 20× objective. Images were acquired using on-line cell counting to acquire a minimum of 1000 cells/well. Images were analysed for nuclear area, length, perimeter and weighted moment of inertia (WMOI) using GE INCELL INVESTIGATOR™ software (available from GE Healthcare).
Four nuclear morphology parameters were abstracted from images using automated image analysis and data from replicate samples exposed to the same concentrations of MMC combined to yield population distribution histograms for each of the four parameters as shown in FIGS. 7 to 10. In each of FIGS. 7 to 10 the data in panel 1 is from control cells, and the data in panels 2-12 from MMC treated cells across the range of 0.01 μM-10 μM MMC.
KS distance analysis of the data using intra-sample measurements (i.e. calculation of the KS distance between cell data in the absence of MMC and cell data at a given concentration of MMC across the range 0.01 μM-10 μM) was performed and the resulting data shown in FIG. 11.
Inter-sample KS distances were calculated for all six possible parameter pairings (Area-Length; Area-WMOI; Length-WMOI; Area-Perimeter; Length-Perimeter; Perimeter-WMOI) by calculation of KS distance between data distributions for two parameters at the same MMC concentration. In order to perform KS distance measures on the different parameters of which had variant dimensions, parameter values were normalized (Pnorm) to a range from 0-1 using the function: […]

[1] = CHO-K1 cells, same MMC concentration, normalized parameters, FIG. 12

## CO[C@@]12[C@H](COC(N)=O)C3=C(C(=O)C(C)=C(N)C3=O)N1C[C@@H]1N[C@@H]12 [MMC, Mitomycin C]
CHO-K1 cells, 0, 0.16 and 2.5 μM MMC, 48 hours, HOECHST 33342 nuclear stain, FIG. 6
  Nuclear size, shape and morphology in representative HCS images: Changes in nuclear size, shape and morphology are clearly visible
CHO-K1 cells, 0.01 μM-10 μM MMC, FIG. 11
  Intra-sample KS distance relative to untreated cells (nuclear area, length, perimeter, WMOI): clear dose-dependent increase in KS distances for all four measured parameters
CHO-K1 cells, 0.16 μM MMC, FIG. 6 image B inset
  Micronuclei formation (higher magnification view): nuclei with associated micronuclei arising from clastogenic DNA damage
[1]
  Inter-sample KS distance Area and perimeter (A-W): low KS inter-sample distance at low and high MMC concentrations with an increase in KS distance at intermediate concentrations
  Inter-sample KS distance Area-Length (A-L): constant low KS distance across the entire MMC concentration range
  Inter-sample KS distance Length-WMOI (L-W): constant high KS distance over most of the MMC concentration range
  Inter-sample KS distance Perimeter-WMOI (P-W): decreases with MMC concentration
